Where a SMILES comes first, the peptide text is derived from it. Bridges are numbered along the chain shown (N, C = ends). [ ]: non-standard residue; d: D form. The star is where a group is joined. hPhe(3,5-F2-4-CF3) = N[C@@H](CCc1cc(F)c(C(F)(F)F)c(F)c1)C(=O)O; hPhe(3-Cl-4-CF3) = N[C@@H](CCc1ccc(C(F)(F)F)c(Cl)c1)C(=O)O; NPrPhe(4-CF3) = CCCN[C@@H](Cc1ccc(C(F)(F)F)cc1)C(=O)O; NMeGly(cPent) = CN[C@H](C(=O)O)C1CCCC1; NEtPhe = CCN[C@@H](Cc1ccccc1)C(=O)O; NMeD = CN[C@@H](CC(=O)O)C(=O)O; NMeL = CN[C@@H](CC(C)C)C(=O)O; Iva = CC[C@](C)(N)C(=O)O; Morpholide = C1CN(*)CCO1; NMeA = CN[C@@H](C)C(=O)O; Ac5c = NC1(C(=O)O)CCCC1; Aze = O=C(O)[C@@H]1CCN1; Sar = CNCC(=O)O
Experiments:
[1] = biological target: GDP-bound HRAS wild-type protein (Homo sapiens, UniProt P01112); assay: Binding to HRAS by surface plasmon resonance (SPR), Single Cycle Kinetics
Sequence of GDP-bound HRAS wild-type protein (P01112 whole entry): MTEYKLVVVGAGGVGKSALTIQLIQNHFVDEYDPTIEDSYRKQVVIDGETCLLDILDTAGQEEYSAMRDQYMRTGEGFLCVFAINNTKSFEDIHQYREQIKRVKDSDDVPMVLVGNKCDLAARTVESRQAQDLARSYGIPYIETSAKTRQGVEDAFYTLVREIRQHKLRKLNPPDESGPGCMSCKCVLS

[2] = biological target: GDP-bound NRAS wild-type protein (Homo sapiens, UniProt P01111); assay: Binding to NRAS by surface plasmon resonance (SPR), Single Cycle Kinetics
Sequence of GDP-bound NRAS wild-type protein (P01111 whole entry): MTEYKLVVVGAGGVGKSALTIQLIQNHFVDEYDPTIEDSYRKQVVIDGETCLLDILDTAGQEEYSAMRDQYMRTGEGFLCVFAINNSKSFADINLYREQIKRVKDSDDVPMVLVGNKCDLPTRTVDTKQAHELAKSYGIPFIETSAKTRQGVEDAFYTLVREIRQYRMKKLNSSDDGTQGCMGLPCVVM

[3] = SPR, GDP-bound HRAS wild-type vs GDP-bound KRAS wild-type
[4] = SPR, GDP-bound NRAS wild-type vs GDP-bound KRAS wild-type
[5] = KD ratio HRAS/KRAS, class symbols
[6] = KD ratio NRAS/KRAS, class symbols
[7] = KD ratio, GDP-bound HRAS wild-type vs GDP-bound KRAS wild-type, SPR
[8] = KD ratio, GDP-bound NRAS wild-type vs GDP-bound KRAS wild-type, SPR

CCO[C@@H]1C[C@H]2C(=O)NC3(CC(C)(C)C3)C(=O)N(C)[C@@H](C(CC)CC)C(=O)N(C)[C@H](C(=O)N3CCCC3)CC(=O)N(C)[C@@H](C)C(=O)N[C@@H]([C@@H](C)CC)C(=O)N(C)CC(=O)N(C)[C@H]3C/C=C\CCN(C3=O)[C@@H](Cc3ccc(C)cc3)C(=O)N(C)CC(=O)N[C@@H](CCc3ccc(Cl)c(Cl)c3)C(=O)N2C1 [PP2187]
HRAS/KRAS (ratio of KD value with respect to HRAS to KD value with respect to KRAS) [1, 3]: A (a compound having 10 or more and less than 20 is denoted as A) | NRAS/KRAS (ratio of KD value with respect to NRAS to KD value with respect to KRAS) [2, 4]: AA (a compound having 20 or more is denoted as AA)

CCC[C@H]1C(=O)N[C@@H]([C@@H](C)CC)C(=O)N(C)CC(=O)N(C)[C@H]2C/C=C\CCN(C2=O)[C@@H](Cc2ccc(C)cc2)C(=O)N(C)CC(=O)N[C@@H](CCc2ccc(Cl)c(Cl)c2)C(=O)N2C[C@H](OC(C)C)C[C@H]2C(=O)NC2(CC(C)(C)C2)C(=O)N(C)[C@@H](C(CC)CC)C(=O)N(C)[C@H](C(=O)N(C)C)CC(=O)N1C [PP2537]
HRAS/KRAS (ratio of KD value with respect to GDP-bound HRAS wild-type protein to KD value with respect to KRAS) [1, 5]: A (a compound having 10 or more and less than 20 is denoted as A) | NRAS/KRAS (ratio of KD value with respect to GDP-bound NRAS wild-type protein to KD value with respect to KRAS) [2, 6]: AA (a compound having 20 or more is denoted as AA)

CCO[C@@H]1C[C@H]2C(=O)NC3(CC(C)(C)C3)C(=O)N(C)[C@@H](C3CCCC3)C(=O)N(C)[C@H](C(=O)N(C)C)CC(=O)N(C)[C@@H](COC)C(=O)N[C@@H]([C@@H](C)CC)C(=O)N(C3CC3)CC(=O)N(C)[C@H]3C/C=C\CCN(C3=O)[C@@H](CC3CCCCC3)C(=O)N(C)CC(=O)N[C@@H](CCc3ccc(Cl)c(Cl)c3)C(=O)N2C1 [PP2563]
HRAS/KRAS (ratio of KD value with respect to GDP-bound HRAS wild-type protein to KD value with respect to KRAS) [1, 5]: A (a compound having 10 or more and less than 20 is denoted as A) | NRAS/KRAS (ratio of KD value with respect to GDP-bound NRAS wild-type protein to KD value with respect to KRAS) [2, 6]: A (a compound having 10 or more and less than 20 is denoted as A)

CCO[C@@H]1C[C@H]2C(=O)NC3(CCC3)C(=O)N(C)[C@@H](C3CCCC3)C(=O)N[C@H](C(=O)N(C)C)CC(=O)N(C)[C@@H](CC)C(=O)N[C@@H]([C@@H](C)CC)C(=O)N(C)CC(=O)N(C)[C@H]3C/C=C\CCN(C3=O)[C@@H](Cc3ccc(C(F)(F)F)cc3)C(=O)N(C)CC(=O)N[C@@H](CCc3cc(F)c(C(F)(F)F)c(F)c3)C(=O)N2C1 [PP1094]
HRAS/KRAS (ratio of KD value with respect to HRAS to KD value with respect to KRAS) [1, 7]: B (a compound having 3 or more and less than 10 is denoted as B) | NRAS/KRAS (ratio of KD value with respect to NRAS to KD value with respect to KRAS) [2, 8]: A (a compound having 10 or more and less than 20 is denoted as A)

CCO[C@@H]1C[C@H]2C(=O)NC3(CCC3)C(=O)N(C)[C@@H](C3CCCC3)C(=O)N(C)[C@H](C(=O)N(C)C)CC(=O)N(C)[C@@H](CCOC)C(=O)N[C@@H]([C@@H](C)CC)C(=O)N(C)CC(=O)N(C)[C@H]3CCCCCN(C3=O)[C@@H](Cc3ccc(C(F)(F)F)cc3)C(=O)N(C)CC(=O)N[C@@H](CCc3cc(F)c(C(F)(F)F)c(F)c3)C(=O)N2C1 [PP0675]
HRAS/KRAS (ratio of KD value with respect to GDP-bound HRAS wild-type protein to KD value with respect to KRAS) ([1]; KD ratio HRAS/KRAS, SPR): B (a compound having 3 or more and less than 10 is denoted as B) | NRAS/KRAS (ratio of KD value with respect to GDP-bound NRAS wild-type protein to KD value with respect to KRAS) ([2]; KD ratio NRAS/KRAS, SPR): B (a compound having 3 or more and less than 10 is denoted as B)

CCCN(C)C(=O)[C@@H]1CC(=O)N(C)[C@@H](CC(F)F)C(=O)N[C@@H]([C@@H](C)CC)C(=O)N(C)CC(=O)N(C)[C@H]2C/C=C\CCN(C2=O)[C@@H](Cc2ccc(C(F)(F)F)cc2)C(=O)N(C)CC(=O)N[C@@H](CCc2cc(F)c(C(F)(F)F)c(F)c2)C(=O)N2C[C@@H](C)C[C@H]2C(=O)NC2(CC(C)(C)C2)C(=O)N(C)[C@@H](C2CCCC2)C(=O)N1C [PP2040]
HRAS/KRAS (ratio of KD value with respect to HRAS to KD value with respect to KRAS) [1, 3]: A (a compound having 10 or more and less than 20 is denoted as A) | NRAS/KRAS (ratio of KD value with respect to NRAS to KD value with respect to KRAS) [2, 4]: A (a compound having 10 or more and less than 20 is denoted as A)

CCCOC[C@H]1C(=O)N[C@@H]([C@@H](C)CC)C(=O)N(C)CC(=O)N(C)[C@H]2C/C=C\CCN(C2=O)[C@@H](Cc2ccc(C)cc2)C(=O)N(C)CC(=O)N[C@@H](CCc2cc(F)c(C(F)(F)F)c(F)c2)C(=O)N2C[C@@H](C)C[C@H]2C(=O)NC2(CC(C)(C)C2)C(=O)N(C)[C@@H](C2CCCC2)C(=O)N(C)[C@H](C(=O)N(C)CC)CC(=O)N1C [PP2471]
HRAS/KRAS (ratio of KD value with respect to HRAS to KD value with respect to KRAS) [1, 3]: A (a compound having 10 or more and less than 20 is denoted as A) | NRAS/KRAS (ratio of KD value with respect to NRAS to KD value with respect to KRAS) [2, 4]: A (a compound having 10 or more and less than 20 is denoted as A)

CCCN(C)C(=O)[C@@H]1CC(=O)N(C)[C@@H](CC(C)C)C(=O)N[C@@H](C2CCOCC2)C(=O)N(C)CC(=O)N(C)[C@H]2C/C=C\CCN(C2=O)[C@@H](Cc2ccc(C(F)(F)F)cc2)C(=O)N(C)CC(=O)N[C@@H](CCc2cc(F)c(C(F)(F)F)c(F)c2)C(=O)N2C[C@H](OCC)C[C@H]2C(=O)NC2(CC(C)(C)C2)C(=O)N(C)[C@@H](C2CCCC2)C(=O)N1C [PP1923]
HRAS/KRAS (ratio of KD value for HRAS to KD value for KRAS) [1, 7]: A (a compound having 10 or more and less than 20 is denoted as A) | NRAS/KRAS (ratio of KD value for NRAS to KD value for KRAS) [2, 8]: A (a compound having 10 or more and less than 20 is denoted as A)

CC[C@H](C)[C@@H]1NC(=O)[C@H](COC)N(C)C(=O)C[C@@H](C(=O)N2CCOCC2)N(C)C(=O)[C@H](C2CCCC2)N(C)C(=O)C2(CCC2)NC(=O)[C@@H]2CCCN2C(=O)[C@H](CCc2cc(F)c(C(F)(F)F)c(F)c2)NC(=O)CN(C)C(=O)[C@H](Cc2ccc(C(F)(F)F)cc2)N2CCCCC[C@@H](C2=O)N(C)C(=O)[C@@H]2CCN2C1=O [PP0865]
HRAS/KRAS (ratio of KD value with respect to HRAS to KD value with respect to KRAS) [1, 7]: B (a compound having 3 or more and less than 10 is denoted as B) | NRAS/KRAS (ratio of KD value with respect to NRAS to KD value with respect to KRAS) [2, 8]: B (a compound having 3 or more and less than 10 is denoted as B)

CCC[C@H]1C(=O)N[C@@H]([C@@H](C)CC)C(=O)N(C2CC2)CC(=O)N(C)[C@H]2C/C=C\CCN(C2=O)[C@@H](CC2CCC(F)(F)CC2)C(=O)N(C)CC(=O)N[C@@H](CCc2ccc(C(F)(F)F)c(OC)c2)C(=O)N2C[C@H](OCC)C[C@H]2C(=O)N(C)C2(CCC2)C(=O)N(C)[C@@H](C2CCCC2)C(=O)N(C)[C@H](C(=O)N(C)C)CC(=O)N1C [PP2352]
HRAS/KRAS (ratio of KD value with respect to HRAS to KD value with respect to KRAS) [1, 3]: A (a compound having 10 or more and less than 20 is denoted as A) | NRAS/KRAS (ratio of KD value with respect to NRAS to KD value with respect to KRAS) [2, 4]: A (a compound having 10 or more and less than 20 is denoted as A)

CCC[C@H]1C(=O)N[C@@H]([C@@H](C)CC)C(=O)N(C)CC(=O)N(C)[C@H]2C/C=C\CCN(C2=O)[C@@H](Cc2ccc(C)cc2)C(=O)N(C)CC(=O)N[C@@H](CCc2cc(F)c(C(F)(F)F)c(F)c2)C(=O)N2CC3(CC3)C[C@H]2C(=O)NC2(CC(C)(C)C2)C(=O)N(C)[C@@H](CC(F)(F)F)C(=O)N(C)[C@H](C(=O)N(C)C)CC(=O)N1C [PP3003]
HRAS/KRAS (ratio of KD value with respect to GDP-bound HRAS wild-type protein to KD value with respect to KRAS) ([1]; KD ratio HRAS/KRAS, SPR, GDP-bound wild-type proteins): A (a compound having 10 or more and less than 20 is denoted as A) | NRAS/KRAS (ratio of KD value with respect to GDP-bound NRAS wild-type protein to KD value with respect to KRAS) ([2]; KD ratio NRAS/KRAS, SPR, GDP-bound wild-type proteins): AA (a compound having 20 or more is denoted as AA)

CCCN1C(=O)CN(C)C(=O)CN(C)C(=O)[C@H]([C@@H](C)CC)NC(=O)[C@H](CC(C)C)N(C)C(=O)C[C@@H](C(=O)N(C)C)N(C)C(=O)[C@H](C2CCCC2)N(C)C(=O)[C@](C)(CC)NC(=O)[C@@H]2CCCN2C(=O)[C@H](CCc2cc(F)c(C(F)(F)F)c(F)c2)NC(=O)CN(C)C(=O)[C@@H]1Cc1ccc(C(F)(F)F)cc1 [PP0805] ([NMeL]I[Sar][Sar][NPrPhe(4-CF3)][Sar][hPhe(3,5-F2-4-CF3)]P[Iva][NMeGly(cPent)][NMeD]-NMe2; lactam N-11)
HRAS/KRAS (ratio of KD value with respect to GDP-bound HRAS wild-type protein to KD value with respect to KRAS) ([1]; KD ratio HRAS/KRAS, SPR): C (A compound having a KD ratio of 0.1 or more and less than 3 is denoted as C) | NRAS/KRAS (ratio of KD value with respect to GDP-bound NRAS wild-type protein to KD value with respect to KRAS) ([2]; KD ratio NRAS/KRAS, SPR): B (a compound having 3 or more and less than 10 is denoted as B)

CCCOC[C@H]1C(=O)N[C@@H]([C@@H](C)CC)C(=O)N(C)CC(=O)N(C)[C@H]2C/C=C\CCN(C2=O)[C@@H](Cc2ccc(C)cc2)C(=O)N(C)CC(=O)N[C@@H](CCc2ccc(C(F)(F)F)c(OC)c2)C(=O)N2C[C@H](OCC)C[C@H]2C(=O)NC2(CC(C)(C)C2)C(=O)N(C)[C@@H](CC(C)(C)C)C(=O)N(C)[C@H](C(=O)N(C)C)CC(=O)N1C [PP2712]
HRAS/KRAS (ratio of KD value with respect to GDP-bound HRAS wild-type protein to KD value with respect to KRAS) [1, 5]: B (a compound having 3 or more and less than 10 is denoted as B) | NRAS/KRAS (ratio of KD value with respect to GDP-bound NRAS wild-type protein to KD value with respect to KRAS) [2, 6]: A (a compound having 10 or more and less than 20 is denoted as A)

CC[C@H](C)[C@@H]1NC(=O)[C@H](CC(C)C)N(C)C(=O)C[C@@H](C(=O)N2CCOCC2)N(C)C(=O)[C@H](C2CCCC2)N(C)C(=O)C2(CCCC2)NC(=O)[C@@H]2CCCN2C(=O)[C@H](CCc2ccc(C(F)(F)F)c(Cl)c2)NC(=O)CN(C)C(=O)[C@H](Cc2ccccc2)N(CC)C(=O)[C@@H]2CCN2C(=O)[C@H](C)N(C)C1=O [PP0215] ([NMeL]I[NMeA][Aze][NEtPhe][Sar][hPhe(3-Cl-4-CF3)]P[Ac5c][NMeGly(cPent)][NMeD]-Morpholide; lactam N-11)
HRAS/KRAS (ratio of KD for GDP-bound HRAS wild-type to KD for KRAS) ([1]; KD ratio HRAS/KRAS, SPR): C (A compound having a KD ratio of 0.1 or more and less than 3 is denoted as C) | NRAS/KRAS (ratio of KD for GDP-bound NRAS wild-type to KD for KRAS) ([2]; KD ratio NRAS/KRAS, SPR): C (A compound having a KD ratio of 0.1 or more and less than 3 is denoted as C)
